From article PMC12814168, “Fast, Bright, and Reversible Fluorescent Labeling of Rhodamine-Binding Proteins” (Journal of the American Chemical Society, 2025)
pKd: −log10 of the molar value.

Key:
[1] = Spectral properties: absolute quantum yield, extinction coefficient, brightness; type: physicochemical
Description: Serially fluorophore dilutions (0 – 3 μM) were prepared in activity buffer in presence or absence […]
Measurements were performed in 200 μL volumes in clear-bottom non-binding […]
recorded on the Spark20M microplate reader (Tecan). Following baseline correction, the absorbance was plotted against the dye concentration and the data were fitted linearly. Path […]
(§1) coefficients were calculated via the Lambert-Beer law (Equation 1).
Absolute quantum yields were determined at room temperature using a Hamamatsu Quantaurus-QY spectrometer (C11347 model). Rhodamine dyes (1 μM) were tested with and without excess […]
Samples were prepared in 800 μL glass vials
Quantum yield represent as mean ± standard deviation from three technical replicates. The brightness was thereafter calculated using Equation 5. […]

SiR-tag [2] = experiment: Fluorescence emission increase (FI/FI0) of SiR upon binding to SiR-tag; type: biochemical; settings: 50 nM dye, with vs without 20 μM protein
Description: The thermal stability of Rho-tag variants was assessed using nano differential scanning fluorimetry (nanoDSF) on a Prometheus NT48 (NanoTemper Technologies). Protein samples (100 µM in activity buffer) were subjected to a thermal gradient from 20° C to 95° C at 1 °C / min.
The intrinsic fluorescence ratio (350 / 330 nm) of tryptophan / tyrosine residues was monitored, and the melting temperature (TM) was determined as the inflection point of this ratio curve. Each sample was analyzed in technical duplicate (N=2), and results are reported as mean ± standard […]
Fluorescence emission spectra
To evaluate fluorescence turn-on or quenching (F I/FI0), rhodamine dyes (2 – 50 nM) were incubated with or without excess Rho-tag (20 μM) in activity buffer containing 0.5% BSA (w/v).
Measurements were performed in black 384-well plates (Greiner) using the Spark20M microplate reader (Tecan) in technical replicates.
FI/FI0 was defined as the ratio of fluorescence intensity with protein to that without at the emission […]
recorded on the Spark20M microplate reader (Tecan). Following baseline correction, the absorbance was plotted against the dye concentration and the data were fitted linearly. […]
as §1
Absolute quantum yields were determined at room temperature using a Hamamatsu Quantaurus-QY spectrometer (C11347 model). […]

Rho-tag = target: T1, Rho-tag (Chlorobaculum tepidum, UniProt Q8KFZ1, A66M/D121K/D126E/E36V/E70D/F125Y/F62Y/G107D/G67E/H40T/K51V/M64F/N138A/Q25R/S152V/S33N/S65D/V17Q/V87I); experiment: Fluorescence intensity titration of SiR with serial Rho-tag dilutions, 50 mM HEPES, 50 mM NaCl, pH 7.3 with BSA, 25 °C.; type: binding; settings: SD, n = 3
T1 construct: gene CT0179; His10-TEV, recombinant from E. coli
Description: electroporation buffer, aliquoted (12 x 50 µL) on ice, and used immediately for electroporation with 1–5 µg DNA precipitated DNA. Cells were transferred to pre-chilled 0.2 cm gap electroporation cuvettes (Bio-Rad), and electroporated using a Gene Pulser Xcell (0.54 kV, 25 µF, infinite resistance, exponential decay). Cells were recovered in 2 mL YPDS at 30 °C, shaking for 1 h and afterwards expanded in 100 mL SDCAA at 30 °C for 2 days.
YSD protein expression, staining and sorting
regions were amplified via KOD PCR reaction using primers containing unique barcodes (NGS adaptor ligation oligos, Eurofins Genomics) analyzed by NGS sequencing (Illumina technology, Eurofins Genomics). The NGS results were analyzed using a custom-build pipeline as described previously. […] Alternatively, plasmid DNA was transformation into E.cloni 10G and single colonies were analyzed by Sanger sequencing (Eurofins). […]
and 1 (fully bound dye). The dissociation constants KD were determined by fitting a single-site […]

SiR-tag [3] = target: T2, SiR-tag; experiment: Fluorescence intensity titration of 20 nM SiR with serial protein dilutions, 50 mM HEPES, 50 mM NaCl, pH 7.3 with BSA, 25 °C, 4 independent measurements.; type: binding; settings: read-out: K D (SiR), SiR-tag; SD, n = 4
T2 construct: 2 + PROSS8 background combined with P57M/F58Y/R60L and G63N/F64K/D65N/M66H; His10-TEV
Excerpt: 4 Bioluminescent Rho-tag and far-red SiR-tag. A) Schematic representation of direct excitation (left) or bioluminescence (BRET, right) of Rho-tag/TMR. B) AlphaFold2 (AF2) model of RhoLuc (N-Rho-tag^1‑64-GSG-cpNLuc^67/68-GS-Rho-tag^67‑158-C). cpNLuc^67/68 was inserted into the 64/67 site of Rho-tag. Tertiary structures are represented as colored cartoons and surface. The TMR ligand presented as yellow sticks. 3-Methoxyfurimazine (3MF) was modeled into the structure by aligning a crystal structure of NLuc (PDB-ID7SNT) to the AF model and is represented as blue sticks. pLDDT: 93.88. C) Bioluminescence profile of RhoLuc (dark blue, insertion), NLuc-Rho-tag (light blue, terminal fusion), or NLuc (gray). […] The fluorescence emission spectra were recorded upon the addition of Nano-Glo substrate (Promega 1:1000). BRET ratio (in brackets) is given as I 593/I 459. […] The fluorescence emission spectrum of 50 nM dye was recorded in the presence and absence of 20 μM protein. […]
SGCAA medium was used for induction and cells were grown at 30 °C, 250 rpm for 20 h. […] Samples were filtered through 5 mL round-bottom tubes with cell strainer caps (Falcon) and analyzed directly by FACS. […]
PMT voltages were set based on negative controls (no protein expression). Gates were applied for FSC, SSC, and fluorescence; signals >10³ (bilirubin or rhodamine dyes) were considered positive, background ≤10². […]

[4] = with 20 µM Rho-tag (TMR, JF549) or SiR-tag (SiR, JF646)

T1 sequence (Q8KFZ1 entry or part of it with the stated changes): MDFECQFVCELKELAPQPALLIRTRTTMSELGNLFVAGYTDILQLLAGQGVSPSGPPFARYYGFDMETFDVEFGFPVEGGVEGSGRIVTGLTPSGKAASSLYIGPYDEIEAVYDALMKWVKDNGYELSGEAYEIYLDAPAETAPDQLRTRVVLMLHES

CN(C)c1ccc2c(c1)[Si](C)(C)c1cc(N(C)C)ccc1C21OC(=O)c2ccccc21 [SiR, silicon rhodamine]
Absolute quantum yield Φ ([1]; HaloTag7-bound): 0.546 ± 0.018 | Brightness ε × Φ ([1]; HaloTag7-bound): 068 ± 1 M-1cm-1 × 103 | Extinction coefficient ε ([1]; HaloTag7-bound): 125 ± 15 M-1cm-1 × 103 | Brightness ε × Φ ([1]; buffer): 067 ± 2 M-1cm-1 × 103 | Extinction coefficient ε ([1]; buffer): 120 ± 22 M-1cm-1 × 103 | Absolute quantum yield Φ ([1]; buffer (unbound dye)): 0.562 ± 0.003 | Absolute quantum yield Φ [1, 4]: 0.649 ± 0.012 | Brightness ε × Φ [1, 4]: 105 ± 1 M-1cm-1 × 103 | Extinction coefficient ε [1, 4]: 162 ± 30 M-1cm-1 × 103 | Fluorescence increase FI/FI0 upon binding to SiR-tag (SiR-tag [2]): 13 fold | pKd (Rho-tag): 5.19 | pKd (SiR-tag [3]): 7.32
